Measurements from patent US20200261534A1, “NEW TREATMENTS OF MULTIPLE MYELOMA” (priority 2017, published 2020).
Read-outs that look alike come from different tables or passages of the source. Starred links: 1 amine or outer side, 2 acyl side, 3 side chain; linkers in the order of their positions; H or OH if unused. Positions of bridges follow the written chain, without caps; N, C: chain ends. Non-standard residues stand in square brackets, D forms with d. Residues, ends and D or L forms follow the SMILES beside them. No end group written: not given here. ξ: configuration not given here. ξαMeNle(6-ylidene) = CC(CCCC=[*:3])(N[*:1])C(=O)[*:2]; X1 = CC(CCCCCCC=[*:3])(N[*:1])C(=O)[*:2]

Key:
Assay type in all cases: cell-based
[1] = system: MM.1S, B Lymphoblast (multiple myeloma); test: MTT viability assay, MM.1S
Protocol: MM.1S, B Lymphoblast (multiple myeloma), ATCC: CRL-2974
(§1) Cell lines A549, MCF-7 and RAMOS were cultured in incubator under CO2 (6%) at 37° C. in DMEM high glucose (Dulbecco's Modified Eagle Solution, Gibco-BRL 31966-21) medium with 10% fetal bovine serum inactivated (FBS) (Gibco-BRL 10106-169). Cell lines HL-60 and MM.1S were cultured in incubator at 37° C. in RPMI-1640 (Sigma R8758) medium with 10% of fetal bovine serum inactivated (FBS) and 2 mM glutamine (Sigma G7513). Cell lines BJ were cultured in incubator under CO2 (6%) at 37° C. in Eagle's Minimum Essential Medium (Sigma, M-2279) with 10% fetal bovine serum inactivated (FBS) (Gibco-BRL 10106-169).
(§2) During the amplification step and the assays adherent cells were rinsed with DPBS (Dulbecco's Phosphate Buffered Saline, Sigma D1283) three times and afterward treated for 5 minutes with trypsin ([…]) (Gibco-BRL, 15400054) in solution of DPBS at 37° C., and, once detached, transferred in the culturing medium. No-adherent cells were centrifuged and transferred in the culturing medium. Cells were counted in a Neubauer chamber after labelling with Tripan-Blue.
Cells were seeded at a density of 10000 cells/well in 100 μl of medium in 96 well plates. After 24 h, the compounds to be tested were added to calculate the dose/response curve at the starting concentration of 100 μM with serial dilutions (1:1). Controls are the untreated cells. Each experiment was performed in triplicate.
(§3) Cells were incubated with the compounds at the indicated concentrations during 24-72 h in incubator under CO2 atmosphere at 37° C. Then, cell viability was measured by means of MTT (3-(4,5-dimethylthiazol-2-yl)-2,5-diphenyltetrazolium bromide) assay. Stock solution of MTT (475989 Calbiochem) was 5 mg/ml in PBS. 1×.10 μl/well of MTT solution were added and the plate was incubated for 3-4 hr. The medium was discarded and 100 μl of extracting buffer (PBS 1×, 15% SDS, 50% […] N,N-Dimethylformamide, pH 4.7) were added to each well. Plates were incubated for 16 h at room temperature under orbital shaking. Absorbance at 570 nm was finally measured. As negative control (experiment noise) 3 wells were treated with 20 μl/well of a solution of SDS 10% in H2O.
(§4) Data analysis was performed calculating the percentage of cell viability normalized vs. the values of negative control, which was considered equal to 100%. The dose/response curve was fitted through the sigmoidal equation dose-response (variable slope) and the IC50 values were calculated as follow:
Y=Bottom+(Top−Bottom)/(1+10^{[(LogIC50−X)*HillSlope]},
All cell lines were cultured in incubator at 37° C. in RPMI-1640 (Sigma R8758) medium with 10% of fetal bovine serum inactivated (FBS) and 2 mM glutamine (Sigma G7513). During the amplification step cells were centrifuged and transferred into the culturing medium. Cells were counted in a Neubauer chamber after labelling with Tripan-Blue.
as §3, with “peptidomimetic compound (S09)” for “compounds”
Cell lines A549 and MBA-MD231 were cultured in incubator under CO2 (6%) at 37° C. in DMEM high glucose (Dulbecco's Modified Eagle Solution, Gibco-BRL 31966-21) medium with 10% fetal bovine serum inactivated (FBS) (Gibco-BRL 10106-169). […]

[2] = system: HL-60, promyeloblast (acute myelocytic leukemia, AML); test: MTT viability assay, HL-60
Protocol: HL-60, promyeloblast (acute myelocytic leukemia, AML), ECACC: 98070106 […] During the amplification step and the assays adherent cells were rinsed with DPBS (Dulbecco's Phosphate Buffered Saline, Sigma D1283) three times and afterward treated for 5 minutes with trypsin ([…]) (Gibco-BRL, 15400054) in solution of DPBS at 37° C., and, once detached, transferred in the culturing medium. No-adherent cells were centrifuged and transferred in the culturing medium. Cells were counted in a Neubauer chamber after labelling with Tripan-Blue. […] Cells were seeded at a density of 10000 cells/well in 100 μl of medium in 96 well plates. […] Controls are the untreated cells. Each experiment was performed in triplicate. Cells were incubated with the compounds at the indicated concentrations during 24-72 h in incubator under CO2 atmosphere at 37° C. […] Stock solution of MTT (475989 Calbiochem) was 5 mg/ml in PBS. 1×.10 μl/well of MTT solution were added and the plate was incubated for 3-4 hr. […] Plates were incubated for 16 h at room temperature under orbital shaking. Absorbance at 570 nm was finally measured. […] The dose/response curve was fitted through the sigmoidal equation dose-response (variable slope) and the IC50 values were calculated as follow: Y=Bottom+(Top−Bottom)/(1+10^{[(LogIC50−X)*HillSlope]},

[3] = system: A549, epithelial (lung cancer); test: MTT viability assay, A549
Protocol: A549, epithelial (lung cancer), ATCC: CCL-185
as §1
as §2, with “Tripan-Blue. […]” for “Tripan-Blue.”
as §3
as §4, with “follow: […]” for “follow:”

[4] = MM.1S, same protocol as Example 2, Table 6, read-out: Compound (IC50)
[5] = HL-60, same protocol as Example 2, Table 6, read-out: Compound (IC50)
[6] = A549, same protocol as Example 2, Table 6, read-out: Compound (IC50)

Question: Which results are given for `CC[C@H](C)[C@@H]1NC(=O)[C@H](Cc2ccc(O)cc2)NC(=O)[C@H](C)NC(=O)[C@H]([C@@H](C)O)NC(=O)[C@H](C)NC(=O)C(C)(NC(=O)[C@H](CCCCN)NC(=O)[C@H](CC(C)C)NC(=O)[C@@H](NC(=O)[C@@H](NC(=O)[C@@H](NC(=O)[C@H](CCCCN)NC(=O)[C@@H]2CCCN2C(=O)[C@H](C)N)C(C)C)C(C)C)[C@@H](C)CC)CCCCCCC=CCCCC(C)(C(=O)N[C@H](C(=O)O)C(C)C)NC(=O)[C@H](CC(C)C)NC1=O` (stereo partly shown) [IDP-S23, APKVVILKXATAYILXV] (H-APKVVILK[X1]ATAYIL[ξαMeNle(6-ylidene)]V-OH; staple 9-16)?
Answer: IC50 [1, 4]: > 100 µM; IC50 [2, 5]: > 100 µM; IC50 [3, 6]: > 100 µM

Question: `CC[C@H](C)[C@H](NC(=O)[C@H](Cc1ccc(O)cc1)NC(=O)[C@H](C)NC(=O)C1(C)CCCC=CCCCCCCC(C)(NC(=O)[C@H](CCCCN)NC(=O)[C@@H]2CCCN2C(=O)[C@H](C)N)C(=O)N[C@@H](C(C)C)C(=O)N[C@@H]([C@@H](C)CC)C(=O)N[C@@H](CC(C)C)C(=O)N[C@@H](CCCCN)C(=O)N[C@@H](CCCCN)C(=O)N[C@@H](C)C(=O)N1)C(=O)N[C@@H](CC(C)C)C(=O)N[C@@H](CO)C(=O)O` (stereo partly shown) [S09, APKXVILKKAXAYILS—OH] (H-APK[X1]VILKKA[ξαMeNle(6-ylidene)]AYILS-OH; staple 4-11; N-terminus assumed) was tested. Which IC50 ([1]; MM1S, MTT, 24-72 h, Table 7, read-out: IC50 values in μM for S09) did it give?
Answer: 7.5 µM

Question: And the IC50 ([1]; MM.1S, MTT, incubation 24-72 h, Table 3, read-out: IC50 values)?
Answer: ~6.2 µM

Question: What about the IC50 [1, 4] of the same compound?
Answer: ~6.2 µM

Question: And the IC50 ([2]; HL-60, MTT, incubation 24-72 h, Table 3, read-out: IC50 values)?
Answer: 3.5 ± 0.2 µM

Question: What about the IC50 [2, 5] of the same compound?
Answer: 3.5 ± 0.2 µM

Question: What about the IC50 ([3]; A549, MTT, 24-72 h, Table 12, read-out: IC50 values) of the same compound?
Answer: 6.3 ± 0.5 µM

Question: What about the IC50 ([3]; A549, MTT, incubation 24-72 h, Table 3, read-out: IC50 values) of the same compound?
Answer: 9.4 ± 4.1 µM

Question: What about the IC50 [3, 6] of the same compound?
Answer: 9.4 ± 4.1 µM

Question: What does the source list for `CC[C@H](C)[C@H](NC(=O)[C@H](Cc1ccc(O)cc1)NC(=O)[C@H](C)NC(=O)C1(C)CCCC=CCCCCCCC(C)(NC(=O)[C@H](CCCCN)NC(=O)[C@@H]2CCCN2C(=O)[C@H](C)N)C(=O)N[C@@H](C(C)C)C(=O)N[C@@H]([C@@H](C)CC)C(=O)N[C@@H](Cc2ccccc2)C(=O)N[C@@H](CCCCN)C(=O)N[C@@H](CCCCN)C(=O)N[C@@H](C)C(=O)N1)C(=O)N[C@@H](CC(C)C)C(=O)N[C@@H](CO)C(=O)O` (stereo partly shown) [S14, APKXVIFKKAXAYILS—OH] (H-APK[X1]VIFKKA[ξαMeNle(6-ylidene)]AYILS-OH; staple 4-11; N-terminus assumed)?
Answer: IC50 [1]: 6.6 ± 0.9 µM; IC50 ([1]; 24 h): 7 µM; IC50 ([1]; 72 h): 7 µM; IC50 [2]: 7.8 ± 0.4 µM; IC50 [3]: 9.1 ± 0.8 µM

Question: For “RQIKIWFQNRRMKWKKNELKRAFAALRDQI [Int-HI-S6A-F8, reference compound]”, which IC50 [1] is on record?
Answer: > 100 µM

Question: And the IC50 [2]?
Answer: > 100 µM

Question: And the IC50 [3]?
Answer: > 100 µM
